Results reported in article doi:10.1101/2024.08.13.607785v1 (biorxiv, 2024).

Experiments:
Parameters in all cases: species or system mixed lysate of K562, MV4-11, THP-1, NCI-H1155
[1] = biological target: Ephrin type-A receptor 5 ; EPHA5 ; P54756 (Homo sapiens, UniProt P54756); conditions: DDA-MS residual binding; binder
[2] = biological target: Serine/threonine-protein kinase LMTK2 ; LMTK2 ; Q8IWU2 (Homo sapiens, UniProt Q8IWU2); conditions: DDA-MS residual binding; binder
[3] = biological target: T1, Dual specificity mitogen-activated protein kinase kinase 3 ; MAP2K3 ; P46734 (Homo sapiens, UniProt P46734); conditions: DDA-MS residual binding; binder
T1 sequence (P46734 1-347): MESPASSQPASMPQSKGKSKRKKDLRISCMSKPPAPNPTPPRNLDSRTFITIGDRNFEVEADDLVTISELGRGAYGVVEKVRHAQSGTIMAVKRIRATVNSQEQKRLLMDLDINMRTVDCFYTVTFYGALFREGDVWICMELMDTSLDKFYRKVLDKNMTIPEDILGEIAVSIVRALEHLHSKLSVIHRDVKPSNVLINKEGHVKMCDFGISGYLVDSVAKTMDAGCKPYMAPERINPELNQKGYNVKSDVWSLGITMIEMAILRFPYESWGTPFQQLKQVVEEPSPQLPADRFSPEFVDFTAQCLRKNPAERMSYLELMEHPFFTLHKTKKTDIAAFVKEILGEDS

[4] = biological target: Activated CDC42 kinase 1 ; TNK2 ; Q07912 (Homo sapiens, UniProt Q07912); conditions: DDA-MS residual binding; binder
Chain of Activated CDC42 kinase 1 ; TNK2 ; Q07912 (Q07912 whole entry): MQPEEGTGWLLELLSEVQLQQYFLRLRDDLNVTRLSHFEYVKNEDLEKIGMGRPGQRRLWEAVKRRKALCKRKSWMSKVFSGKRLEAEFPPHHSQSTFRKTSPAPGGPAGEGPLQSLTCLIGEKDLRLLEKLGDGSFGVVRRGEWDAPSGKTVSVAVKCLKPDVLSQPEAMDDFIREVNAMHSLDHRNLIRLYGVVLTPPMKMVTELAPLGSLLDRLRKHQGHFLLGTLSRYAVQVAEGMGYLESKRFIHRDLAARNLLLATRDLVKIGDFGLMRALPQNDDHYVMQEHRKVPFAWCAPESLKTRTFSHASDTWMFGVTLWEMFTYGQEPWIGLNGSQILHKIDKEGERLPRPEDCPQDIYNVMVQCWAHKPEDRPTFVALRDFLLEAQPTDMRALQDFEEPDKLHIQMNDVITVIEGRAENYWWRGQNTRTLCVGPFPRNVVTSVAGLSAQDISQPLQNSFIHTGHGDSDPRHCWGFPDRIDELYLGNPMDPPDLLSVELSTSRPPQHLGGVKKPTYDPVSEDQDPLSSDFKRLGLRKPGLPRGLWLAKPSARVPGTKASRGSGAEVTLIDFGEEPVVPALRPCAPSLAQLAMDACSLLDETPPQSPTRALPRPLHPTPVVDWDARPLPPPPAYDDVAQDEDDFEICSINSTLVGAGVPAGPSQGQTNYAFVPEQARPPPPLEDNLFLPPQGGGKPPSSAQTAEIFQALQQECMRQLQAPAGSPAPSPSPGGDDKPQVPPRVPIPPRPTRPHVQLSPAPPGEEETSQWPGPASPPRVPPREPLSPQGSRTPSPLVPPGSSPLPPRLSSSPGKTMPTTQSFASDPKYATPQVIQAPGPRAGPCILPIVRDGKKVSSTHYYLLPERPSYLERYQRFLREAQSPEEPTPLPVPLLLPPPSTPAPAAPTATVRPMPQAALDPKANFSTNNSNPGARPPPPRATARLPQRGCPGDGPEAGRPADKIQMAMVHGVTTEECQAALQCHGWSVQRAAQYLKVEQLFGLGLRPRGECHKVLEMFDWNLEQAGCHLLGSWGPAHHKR

[5] = biological target: T2, Tyrosine-protein kinase Tec ; TEC ; P42680 (Homo sapiens, UniProt P42680); conditions: binder
T2 sequence (P42680 1-631): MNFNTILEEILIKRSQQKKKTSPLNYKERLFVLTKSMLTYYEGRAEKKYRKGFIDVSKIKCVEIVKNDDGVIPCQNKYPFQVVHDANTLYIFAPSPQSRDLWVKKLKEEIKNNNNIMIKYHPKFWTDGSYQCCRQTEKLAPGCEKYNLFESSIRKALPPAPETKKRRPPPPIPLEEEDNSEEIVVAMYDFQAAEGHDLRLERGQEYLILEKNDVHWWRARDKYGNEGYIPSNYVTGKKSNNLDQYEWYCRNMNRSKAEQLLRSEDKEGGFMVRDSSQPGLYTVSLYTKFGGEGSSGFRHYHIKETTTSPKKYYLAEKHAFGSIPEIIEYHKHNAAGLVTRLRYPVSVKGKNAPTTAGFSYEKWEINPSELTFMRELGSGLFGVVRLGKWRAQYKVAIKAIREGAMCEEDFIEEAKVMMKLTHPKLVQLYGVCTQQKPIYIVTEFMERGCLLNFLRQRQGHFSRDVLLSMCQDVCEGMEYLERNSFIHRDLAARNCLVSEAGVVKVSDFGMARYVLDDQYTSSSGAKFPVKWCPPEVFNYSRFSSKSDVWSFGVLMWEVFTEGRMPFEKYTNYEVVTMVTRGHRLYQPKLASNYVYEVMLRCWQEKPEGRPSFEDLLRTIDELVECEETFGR

[6] = biological target: T3, Cyclin-G-associated kinase ; GAK ; O14976 (Homo sapiens, UniProt O14976); conditions: DDA-MS residual binding; binder
T3 sequence (O14976 1-1311): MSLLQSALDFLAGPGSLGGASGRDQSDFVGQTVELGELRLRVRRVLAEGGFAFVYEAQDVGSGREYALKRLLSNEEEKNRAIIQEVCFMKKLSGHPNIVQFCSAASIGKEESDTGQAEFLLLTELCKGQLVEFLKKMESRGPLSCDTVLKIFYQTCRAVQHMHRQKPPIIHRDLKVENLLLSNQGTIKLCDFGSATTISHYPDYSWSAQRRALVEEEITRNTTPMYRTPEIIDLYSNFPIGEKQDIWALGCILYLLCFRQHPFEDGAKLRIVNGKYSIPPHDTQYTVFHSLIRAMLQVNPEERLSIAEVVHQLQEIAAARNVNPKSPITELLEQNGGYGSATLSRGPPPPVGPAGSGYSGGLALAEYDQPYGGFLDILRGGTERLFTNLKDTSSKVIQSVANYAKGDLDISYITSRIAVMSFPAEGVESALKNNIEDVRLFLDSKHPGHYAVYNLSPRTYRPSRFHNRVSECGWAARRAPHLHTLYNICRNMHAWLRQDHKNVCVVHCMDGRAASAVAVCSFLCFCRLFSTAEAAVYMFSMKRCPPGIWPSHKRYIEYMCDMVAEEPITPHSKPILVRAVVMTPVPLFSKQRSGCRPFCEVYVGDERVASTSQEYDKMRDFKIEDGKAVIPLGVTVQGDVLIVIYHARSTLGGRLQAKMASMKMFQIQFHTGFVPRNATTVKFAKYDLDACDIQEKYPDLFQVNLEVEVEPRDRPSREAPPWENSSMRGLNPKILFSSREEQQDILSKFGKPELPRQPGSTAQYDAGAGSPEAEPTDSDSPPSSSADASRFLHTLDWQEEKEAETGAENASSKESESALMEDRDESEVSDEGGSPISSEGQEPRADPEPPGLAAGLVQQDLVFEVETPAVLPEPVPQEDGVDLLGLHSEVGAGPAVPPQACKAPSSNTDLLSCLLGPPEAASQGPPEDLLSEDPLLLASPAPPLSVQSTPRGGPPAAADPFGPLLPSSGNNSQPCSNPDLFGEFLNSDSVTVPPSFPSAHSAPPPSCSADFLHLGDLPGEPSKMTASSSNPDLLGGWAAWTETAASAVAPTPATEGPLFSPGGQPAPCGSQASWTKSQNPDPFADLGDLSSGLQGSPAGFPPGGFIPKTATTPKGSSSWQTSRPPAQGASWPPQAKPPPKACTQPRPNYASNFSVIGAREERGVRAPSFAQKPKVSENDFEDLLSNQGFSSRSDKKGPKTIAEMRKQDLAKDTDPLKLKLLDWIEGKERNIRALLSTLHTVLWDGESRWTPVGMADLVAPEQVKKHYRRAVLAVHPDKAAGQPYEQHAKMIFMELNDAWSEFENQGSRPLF

Chain of Serine/threonine-protein kinase LMTK2 ; LMTK2 ; Q8IWU2 (Q8IWU2 whole entry, one chain of several): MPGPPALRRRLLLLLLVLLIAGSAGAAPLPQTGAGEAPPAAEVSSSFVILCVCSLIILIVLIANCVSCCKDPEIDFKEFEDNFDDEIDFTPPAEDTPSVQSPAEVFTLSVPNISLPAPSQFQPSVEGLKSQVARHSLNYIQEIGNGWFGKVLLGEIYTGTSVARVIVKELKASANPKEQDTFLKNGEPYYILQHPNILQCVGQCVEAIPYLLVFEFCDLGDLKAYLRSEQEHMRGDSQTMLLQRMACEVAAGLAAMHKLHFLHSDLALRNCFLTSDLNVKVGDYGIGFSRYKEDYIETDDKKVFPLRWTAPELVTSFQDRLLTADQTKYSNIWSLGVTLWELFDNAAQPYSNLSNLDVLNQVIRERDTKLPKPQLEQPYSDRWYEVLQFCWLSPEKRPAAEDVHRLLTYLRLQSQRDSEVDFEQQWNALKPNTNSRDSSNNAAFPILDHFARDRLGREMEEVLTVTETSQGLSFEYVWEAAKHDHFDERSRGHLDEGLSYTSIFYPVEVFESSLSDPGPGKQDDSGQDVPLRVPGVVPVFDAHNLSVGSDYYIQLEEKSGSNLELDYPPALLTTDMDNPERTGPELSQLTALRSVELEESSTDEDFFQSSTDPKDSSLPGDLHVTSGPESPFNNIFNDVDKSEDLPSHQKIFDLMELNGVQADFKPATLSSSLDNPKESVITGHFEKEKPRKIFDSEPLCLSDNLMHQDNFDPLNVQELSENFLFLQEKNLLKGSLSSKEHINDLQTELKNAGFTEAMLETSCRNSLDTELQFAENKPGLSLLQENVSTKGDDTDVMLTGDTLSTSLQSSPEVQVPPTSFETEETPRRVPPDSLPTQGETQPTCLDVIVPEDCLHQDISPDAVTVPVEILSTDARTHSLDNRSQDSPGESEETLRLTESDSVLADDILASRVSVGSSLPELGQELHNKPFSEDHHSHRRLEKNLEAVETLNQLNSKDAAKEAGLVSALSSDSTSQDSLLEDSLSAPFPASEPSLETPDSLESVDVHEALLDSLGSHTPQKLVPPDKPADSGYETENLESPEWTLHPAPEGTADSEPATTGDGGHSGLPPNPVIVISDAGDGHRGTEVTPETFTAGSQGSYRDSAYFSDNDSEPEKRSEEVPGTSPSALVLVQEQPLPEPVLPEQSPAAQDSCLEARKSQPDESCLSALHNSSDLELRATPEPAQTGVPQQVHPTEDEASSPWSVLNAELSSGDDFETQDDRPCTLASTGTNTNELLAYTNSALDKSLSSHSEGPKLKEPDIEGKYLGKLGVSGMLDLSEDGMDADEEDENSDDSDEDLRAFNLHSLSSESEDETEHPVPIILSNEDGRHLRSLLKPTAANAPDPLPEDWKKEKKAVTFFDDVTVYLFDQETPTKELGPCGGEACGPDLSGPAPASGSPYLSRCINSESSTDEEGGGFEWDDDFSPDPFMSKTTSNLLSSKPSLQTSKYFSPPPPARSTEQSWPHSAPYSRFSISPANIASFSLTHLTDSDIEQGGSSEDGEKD
Chain of Ephrin type-A receptor 5 ; EPHA5 ; P54756 (P54756 whole entry): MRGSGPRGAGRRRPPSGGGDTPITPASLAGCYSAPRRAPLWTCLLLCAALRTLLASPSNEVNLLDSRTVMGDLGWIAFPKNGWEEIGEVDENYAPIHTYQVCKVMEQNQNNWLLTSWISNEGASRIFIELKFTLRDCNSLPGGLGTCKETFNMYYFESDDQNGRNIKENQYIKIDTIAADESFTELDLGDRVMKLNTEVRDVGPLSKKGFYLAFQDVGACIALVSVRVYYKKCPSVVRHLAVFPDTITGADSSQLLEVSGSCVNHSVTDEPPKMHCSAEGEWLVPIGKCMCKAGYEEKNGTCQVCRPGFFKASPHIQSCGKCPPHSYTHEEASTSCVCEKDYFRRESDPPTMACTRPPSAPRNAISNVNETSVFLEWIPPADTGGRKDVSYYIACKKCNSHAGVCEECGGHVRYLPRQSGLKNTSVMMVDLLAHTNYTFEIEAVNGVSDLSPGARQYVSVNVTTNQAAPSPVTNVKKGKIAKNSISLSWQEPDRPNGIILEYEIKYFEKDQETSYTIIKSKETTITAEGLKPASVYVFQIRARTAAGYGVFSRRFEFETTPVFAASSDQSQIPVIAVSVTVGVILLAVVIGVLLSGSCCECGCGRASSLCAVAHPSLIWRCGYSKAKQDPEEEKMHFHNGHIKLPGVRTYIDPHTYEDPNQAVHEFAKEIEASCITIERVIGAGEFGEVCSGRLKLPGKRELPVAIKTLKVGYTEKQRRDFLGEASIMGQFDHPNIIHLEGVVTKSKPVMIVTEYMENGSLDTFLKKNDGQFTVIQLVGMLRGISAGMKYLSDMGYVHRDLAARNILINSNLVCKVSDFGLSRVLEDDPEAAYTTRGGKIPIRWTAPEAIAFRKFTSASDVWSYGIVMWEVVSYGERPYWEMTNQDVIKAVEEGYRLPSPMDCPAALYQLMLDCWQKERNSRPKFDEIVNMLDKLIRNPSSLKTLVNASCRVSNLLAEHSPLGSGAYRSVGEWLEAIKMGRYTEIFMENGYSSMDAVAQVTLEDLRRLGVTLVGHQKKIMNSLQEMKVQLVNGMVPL

DDA-MS / % Intensity (30 µM/DMSO) [1]: 2.68% | DDA-MS / % Intensity (30 µM/DMSO) [2]: 9.69% | DDA-MS / % Intensity (30 µM/DMSO) [3]: 35.23% | DDA-MS / % Intensity (30 µM/DMSO) [4]: 3.313% | DDA-MS / % Intensity (30 µM/DMSO) [5]: 2.183% | DDA-MS / % Intensity (30 µM/DMSO) [6]: 1.947%
SMILES: Cc1nc(Nc2ncc(C(=O)Nc3c(C)cccc3Cl)s2)cc(N2CCN(CCO)CC2)n1 [dasatinib]
